Experimental data taken from US5043450A, “8-alkoxyquinolonecarboxylic acid and salts thereof” (priority 1986, dated 1991).
In brackets after ≈: the same amount, converted by molar mass.

What was measured:
Type in all cases: cell-based
[1] = system: Bacilus subtilis PCI 219; test: Antibacterial spectra, MIC; details: Bacillus subtilis, PCI219
[2] = system: S. aureus IID 670 (Terajima); test: Antibacterial spectra, MIC; details: Staphylococcus aureus, IID670; 10^6 cells/ml; Gram +; read-out: MIC
[3] = system: S. aureus Smith; test: Antibacterial spectra, MIC; details: Staphylococcus aureus; 10^6 cells/ml; Gram +; read-out: MIC
[4] = system: S. epidermidis IID 866; test: Antibacterial spectra, MIC; details: Staphylococcus epidermidis, IID866; 10^6 cells/ml; Gram +; read-out: MIC
[5] = system: S. pyogenes IID 692; test: Antibacterial spectra, MIC; details: Streptococcus pyogenes, IID692; 10^6 cells/ml; Gram +; read-out: MIC
[6] = system: S. pneumoniae IID 552; test: Antibacterial spectra, MIC; details: Streptococcus pneumoniae, IID552; 10^6 cells/ml; Gram +; read-out: MIC
[7] = system: Escherichia coli NIHJ JC-2; test: Antibacterial spectra, MIC; details: NIHJJC2
[8] = system: E. coli ATCC 10536; test: Antibacterial spectra, MIC; details: Escherichia coli, ATCC10536
[9] = system: P. mirabilis IID 994; test: Antibacterial spectra, MIC; details: Proteus mirabilis, IID994; 10^6 cells/ml; Gram -; read-out: MIC
[10] = system: Morganella morganii IID 602; test: Antibacterial spectra, MIC; details: IID602, 10^6 cells/ml, Gram -, read-out: MIC
[11] = system: K. pneumoniae 1-220S; test: Antibacterial spectra, MIC; details: Klebsiella pneumoniae, 1220S; 10^6 cells/ml; Gram -; read-out: MIC
[12] = system: Enterobacter cloacae IID 977; test: Antibacterial spectra, MIC; details: IID977, 10^6 cells/ml, Gram -, read-out: MIC
[13] = system: Citrobacter freundii IID 976; test: Antibacterial spectra, MIC; details: IID976, 10^6 cells/ml, Gram -, read-out: MIC
[14] = system: Serratia marcescens IID 618; test: Antibacterial spectra, MIC; details: IID618, 10^6 cells/ml, Gram -, read-out: MIC
[15] = system: Salmonella enteritidis IID 604; test: Antibacterial spectra, MIC; details: Salmonella enterica; 10^6 cells/ml; Gram -; read-out: MIC
[16] = system: Pseudomonas aeruginosa V-1; test: Antibacterial spectra, MIC; details: V1, 10^6 cells/ml, Gram -, read-out: MIC
[17] = system: P. aeruginosa IID 1210; test: Antibacterial spectra, MIC; details: Pseudomonas aeruginosa, IID1210; 10^6 cells/ml; Gram -; read-out: MIC
[18] = system: P. cepacia GIFU 518; test: Antibacterial spectra, MIC; details: Burkholderia cepacia, GIFU518; 10^6 cells/ml; Gram -; read-out: MIC
[19] = system: P. maltophilia GIFU 2491; test: Antibacterial spectra, MIC; details: Stenotrophomonas maltophilia, GIFU2491; 10^6 cells/ml; Gram -; read-out: MIC
[20] = system: Yersinia enterocolitica IID 981; test: Antibacterial spectra, MIC; details: IID981, 10^6 cells/ml, Gram -, read-out: MIC
[21] = system: Acinetobacter anitratus IID 876; test: Antibacterial spectra, MIC; details: Acinetobacter calcoaceticus, IID876; 10^6 cells/ml; Gram -; read-out: MIC
[22] = system: Alcaligenes faecalis 0114002; test: Antibacterial spectra, MIC; details: 10^6 cells/ml, Gram -, read-out: MIC
[23] = system: Bacteroides fragilis GM 7000; test: Antibacterial spectra, MIC; details: GM7000, 10^6 cells/ml, Gram -, read-out: MIC
[24] = system: B. fragilis 0558; test: Antibacterial spectra, MIC; details: Bacteroides fragilis, 10^6 cells/ml, Gram -, read-out: MIC
[25] = system: B. fragilis 25285; test: Antibacterial spectra, MIC; details: Bacteroides fragilis, 10^6 cells/ml, Gram -, read-out: MIC
[26] = system: B. distasonis 8503; test: Antibacterial spectra, MIC; details: Parabacteroides distasonis, 10^6 cells/ml, Gram -, read-out: MIC
[27] = system: B. thetaiotaomicron (0661); test: Antibacterial spectra, MIC; details: Bacteroides thetaiotaomicron; 10^6 cells/ml; Gram -; read-out: MIC
[28] = system: Fusobacterium mortiferum 4249; test: Antibacterial spectra, MIC; details: 10^6 cells/ml, Gram -, read-out: MIC
[29] = system: F. necrophorum S-45; test: Antibacterial spectra, MIC; details: Fusobacterium necrophorum, S45; 10^6 cells/ml; Gram -; read-out: MIC
[30] = system: F. varium KYA 8501; test: Antibacterial spectra, MIC; details: Fusobacterium varium, KYA8501; 10^6 cells/ml; Gram -; read-out: MIC
[31] = system: Eubacterium lentum GAI 5242; test: Antibacterial spectra, MIC; details: Eggerthella lenta, GAI5242
[32] = system: Propionibacterium acens 11828; test: Antibacterial spectra, MIC; details: 10^6 cells/ml, Gram +, read-out: MIC
[33] = system: Peptococcus magnus KY 017; test: Antibacterial spectra, MIC; details: Finegoldia magna, KY017; 10^6 cells/ml; Gram +; read-out: MIC
[34] = system: C. perfringens KYA 13123; test: microbe, parasite or virus in culture; details: Clostridium perfringens, KYA13123
[35] = system: Peptostreptococcus anaerobius KYA 27337; test: Antibacterial spectra, MIC; details: KYA27337, 10^6 cells/ml, Gram +, read-out: MIC
[36] = system: Veillonella parvula KYA 10790; test: Antibacterial spectra, MIC; details: KYA10790, 10^6 cells/ml, Gram -, read-out: MIC

CCOc1c(N2CCNCC2)c(F)cc2c(=O)c(C(=O)O)cn(C3CC3)c12 [Exp. 18, 1-cyclopropyl-6-fluoro-1,4-dihydro-8-ethoxy-4-oxo-7-(1-piperazinyl)-3-quinolinecarboxylic acid]
MIC [1]: ≤ 0.05 µg/mL | MIC [2]: 0.39 µg/mL (≈ 1.04 µM) | MIC [3]: 0.39 µg/mL (≈ 1.04 µM) | MIC [4]: 0.39 µg/mL (≈ 1.04 µM) | MIC [5]: 3.13 µg/mL (≈ 8.34 µM) | MIC [6]: 0.78 µg/mL (≈ 2.08 µM) | MIC [7]: ≤ 0.05 µg/mL | MIC [8]: ≤ 0.05 µg/mL | MIC [9]: 0.1 µg/mL (≈ 0.266 µM) | MIC [10]: 0.39 µg/mL (≈ 1.04 µM) | MIC [11]: 0.2 µg/mL (≈ 0.533 µM) | MIC [12]: 0.2 µg/mL (≈ 0.533 µM) | MIC [13]: 0.1 µg/mL (≈ 0.266 µM) | MIC [14]: 0.2 µg/mL (≈ 0.533 µM) | MIC [15]: 0.1 µg/mL (≈ 0.266 µM) | MIC [16]: 0.78 µg/mL (≈ 2.08 µM) | MIC [17]: 6.25 µg/mL (≈ 16.6 µM) | MIC [18]: 3.13 µg/mL (≈ 8.34 µM) | MIC [19]: 0.39 µg/mL (≈ 1.04 µM) | MIC [20]: 0.2 µg/mL (≈ 0.533 µM) | MIC [21]: 0.1 µg/mL (≈ 0.266 µM) | MIC [22]: 0.78 µg/mL (≈ 2.08 µM) | MIC [23]: 3.13 µg/mL (≈ 8.34 µM) | MIC [24]: 12.5 µg/mL (≈ 33.3 µM) | MIC [25]: 3.13 µg/mL (≈ 8.34 µM) | MIC [26]: 12.5 µg/mL (≈ 33.3 µM) | MIC [27]: 12.5 µg/mL (≈ 33.3 µM) | MIC [28]: 3.13 µg/mL (≈ 8.34 µM) | MIC [29]: 3.13 µg/mL (≈ 8.34 µM) | MIC [30]: 25 µg/mL (≈ 66.6 µM) | MIC [31]: 1.56 µg/mL (≈ 4.16 µM) | MIC [32]: 12.5 µg/mL (≈ 33.3 µM) | MIC [33]: 0.78 µg/mL (≈ 2.08 µM) | MIC [34]: 1.56 µg/mL (≈ 4.16 µM) | MIC [35]: 3.13 µg/mL (≈ 8.34 µM) | MIC [36]: 0.78 µg/mL (≈ 2.08 µM)
